This note sets out measurements from patent publication US5008265A, “2-amino-7-(alicyclomethyl)-3H,5H,-pyrrolo[3,2-d]pyrimidin-4-ones and pharmaceutical uses and compositions containing the same” (BioCryst, Inc., priority 1989, dated 1991).

Structures are written as SMILES. Where two headings read alike, the source gives them in different places.

One assay concerns CCRF-CEM cells. Briefly: potentiation of the toxicity of 2'-deoxyguanosine (d-Guo) in CCRF-CEM cells. The assay is classed as cell-based. Particulars: read-out: IC50, concentration of the compound required to reduce the increase in cell number between 0 and 72 hours to 50% of that of control cultures, with d-Guo at 5.62 μM, RPMI-1640 medium. Here is the method:
CCRF-CEM cells are grown in RPMI-1640 medium. To a suspension cultures of these cells, d-Guo at a fixed concentration (5.62 μM) and the compound at varied concentrations are added and the number of cells are determined in a Coulter counter 24, 48, and 72 hours thereafter.

The target in assay [1] is T1, purine nucleoside phosphorylase (PNP) (Bos taurus, UniProt P55859).
T1 construct: using calf spleen as the enzyme source; from tissue; host or cells: calf spleen
T1 sequence (P55859 1-289): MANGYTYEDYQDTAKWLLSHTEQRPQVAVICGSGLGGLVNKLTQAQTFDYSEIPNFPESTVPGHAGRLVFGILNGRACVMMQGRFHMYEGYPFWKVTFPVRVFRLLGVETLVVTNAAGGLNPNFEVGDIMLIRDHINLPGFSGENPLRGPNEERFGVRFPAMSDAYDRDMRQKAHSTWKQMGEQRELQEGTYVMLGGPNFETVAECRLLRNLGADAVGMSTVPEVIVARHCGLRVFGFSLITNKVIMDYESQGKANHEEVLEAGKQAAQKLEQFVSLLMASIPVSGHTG
The experiment in a line: biochemical. The assay is classed as biochemical, calf. Here is the method: The compound of Example 8 is tested for enzyme inhibition activity.

Another assay has as its system plasma inosine. Briefly: plasma inosine in Lewis rats after intraperitoneal injection (HPLC). The assay is classed as in vivo. The following applies: 30 mg twice per day, aqueous carrier with ten percent DMSO, vs vehicle controls. Here is the method:
A pharmaceutical composition for intraperitoneal injection is prepared for testing the compound (IA). An intraperitoneal injection solution containing the compound (IA) is dissolved in an aqueous carrier that contains ten percent DMSO.
The compound (IA) is intraperitoneally injected into Lewis Rats via the test composition of Example 21 to provide 30 mg of the compound (IA), with an injection given twice per day. Controls are used, which receive only the vehicle. At specific times after administration, the animals are sacrificed and plasma samples are prepared. The plasma is extracted with cold 0.5 N HClO4 and neutralized with solid NH4 HCO3. After removal of perchlorate salts, the extract is subjected to HPLC on a reversed phase column (Spherisorb ODSI).
Compounds prepared as in Examples 10-20 are each made into a pharmaceutical formulation in accordance with the preparation of Example 21 and the resultant injectable solutions are tested in accordance with the procedure of Example 22.
A pharmaceutical composition for intraperitoneal injection is prepared for testing the compound (IC). An intraperitoneal injection solution is prepared containing the compound (IC) is dissolved in an aqueous carrier that contains ten percent DMSO. […]

[2] abbreviates: 1 mM phosphate, calf spleen enzyme, read-out: PNP activity (IC50) at 1 mM phosphate.
[3] abbreviates: read-out: PNP activity (IC50) at 50 mM phosphate, 50 mM phosphate, calf spleen enzyme.

In the case of `Nc1nc2c(CC3CCCCC3)c[nH]c2c(=O)[nH]1` [Example 56, 2-amino-7-(cyclohexylmethyl) -3H,5H-pyrrolo[3,2-d]-pyrimidin-4-one], the IC50 with CCRF-CEM cells is 2000 nM.

For `CC1CCCC(Cc2c[nH]c3c(=O)[nH]c(N)nc23)C1` (stereo not shown) [Example 59, 2-amino-7-(3-methylcyclohexylmethyl)-3H,5H-pyrrolo[3,2-d]pyrimidin-4-one], the IC50 in assay [1] (read-out: PNP activity (IC50) at 1 mM phosphate) came out at 25 nM.

In the case of `Nc1nc2c(CC3C4CC5CC(C4)CC3C5)c[nH]c2c(=O)[nH]1` (stereo not shown) [Example 8, 2-amino-7-(2-adamantylmethyl)-3H,5H-pyrrolo[3,2-d]pyrimidin-4-one], the IC50 came to 90 nM in assay [1] (setting [2]) and 2500 nM in assay [1] (setting [3]). Moreover, in the assay with plasma inosine, the “increase in plasma inosine” value is “significant increase in plasma inosine”.

In the case of `Nc1nc2c(CC3CCCCCC3)c[nH]c2c(=O)[nH]1` [Example 70, 2-amino-7-(cycloheptylmethyl)-3H,5H-pyrrolo[3,2-d]pyrimidin-4-one], the IC50 in assay [1] (setting [2]) is 30 nM; in assay [1] (PNP activity (IC50) at 50 mM phosphate, 50 mM phosphate, calf spleen enzyme), 840 nM.

With `Nc1nc2c(CC3CCCC3)c[nH]c2c(=O)[nH]1` [Example 41, 2-amino-7-(cyclopentylmethyl)-3H,5H-pyrrolo[3,2-d]-pyrimidin-4-one], the IC50 is 29 nM in assay [1] (setting [2]) and 1800 nM in assay [1] (setting [3]). Moreover, in the assay on plasma inosine, the “increase in plasma inosine” value is “significant increase in plasma inosine”.
